In patent publication US11185530B2, “Composition for preventing or treating hearing loss, containing atorvastatin as active ingredient” (AJOU UNIVERSITY INDUSTRY-ACADEMIC COOPERATION FOUNDATION, priority 2017, dated 2021):

Columns and labels:
[1] = test system: cochlea of the diabetic mouse model; test: H&E staining and immunohistochemistry (DHE, TUNEL) of cochlea of diabetic mouse model; assay type: in vivo, C57/BL6J male mice
Experimental: Damage to cochlear hair cells around the base and middle turn (16 kHz) region, fibrocytes of the lateral wall and spiral ganglion cells of the cochlea of the diabetic mouse model established in Example 1 was evaluated through H & E (hematoxylin and eosin) staining and immunohistochemistry.
Then, the auditory cells (cochlear hair cells) were observed through immunohistochemistry.
The spiral ganglion cells were analyzed by H & E staining.
Stria vascularis cells in the lateral wall in the cochlea (inner ear) were analyzed by H & E staining.

[2] = test system: breast cancer cell xenograft model; settings: Front. Med. China, 2009; cited from earlier work
[3] = test system: mouse model of age-related hearing loss; settings: Neuroscience Letters, 2007; cited from earlier work
[4] = test system: noise-induced hearing loss rat model; settings: low dose, 5 mg/kg; Int J Occup Environ Med, 2016; cited from earlier work
[5] = test system: auditory cell line (HEI-OC1); test: WST-1 assay of cytotoxicity and cell viability; assay type: cell-based
Experimental: The effect of palmitate on cytotoxicity and cell viability of the auditory cell line (HEI-OC1) was quantitatively analyzed through a WST-1 assay.
In order to evaluate the function of atorvastatin against the cytotoxicity of palmitate, atorvastatin was pre-treated at each concentration and palmitate was post-treated at each concentration.
The cytotoxic and apoptotic effects of palmitate and the cytoprotective effect of atorvastatin were analyzed using a student's T-test for statistical significance through quantification.

[6] = test system: obese C57 mice; settings: Lipids in Health and Disease, 2014; cited from earlier work
[7] = test system: HEI-OC1 cells; test: Western blotting of cleaved caspase-3, PARP and AKT phosphorylation; assay type: cell-based
[8] = test system: auditory cell line (HEI-OC1); test: TUNEL immunostaining quantified by fluorescence microscopy; assay type: cell-based; settings: HEI-OC1, combination of palmitate and atorvastatin
[9] = test system: auditory cell line (HEI-OC1); test: ATP detection luminescence; assay type: cell-based; settings: total extract of cells, palmitate plus atorvastatin
Experimental: In addition, the effects of atorvastatin on the protection of cells and on energy metabolisms were evaluated using ATP detection luminescence.

[10] = test system: diabetic mouse model; test: Body weight, blood glucose, glucose tolerance and insulin tolerance in diabetic mouse model; assay type: in vivo, C57/BL6J male mice; settings: 12-week diabetic mice, 20 mg/kg i.p. once every 2 days for 5 weeks, vs control group
Experimental: The diabetes-mediated hearing loss model was fed with 60% high fat/30% fructose water for 12 weeks and bred to induce diabetes. The diabetes model was established by measuring blood glucose levels, and testing glucose tolerance and insulin tolerance once every two weeks for 12 weeks, weighing weekly and conducting food/water intake efficiency tests twice weekly.
The experimental group was divided into an atorvastatin group (n=15, 20 mg/kg) and a control (vehicle) group (n=15, DMSO+normal saline) and intraperitoneal administration was conducted once every 2 days for 5 weeks. During the drug administration period, body weight and food intake efficiency tests were performed. Hearing tests, blood glucose measurement, and glucose and insulin tolerance tests were performed immediately before the end of the administration period.
In addition, body weight, blood glucose level, glucose tolerance and insulin tolerance were measured in the experimental group, obtained by administering atorvastatin to the 12-week diabetic mice, and in the control group. […] All statistical significance was analyzed using one-way ANOVA of SPSS program and student's T-tests.

[11] = test system: auditory cell line (HEI-OC1); test: DCFDA staining of reactive oxygen species; assay type: cell-based; settings: HEI-OC1, palmitate and atorvastatin
[12] = test system: HEI-OC1 cells; test: PI staining and cell morphology analysis of apoptosis; assay type: cell-based; settings: HEI-OC1, 24 hours, 200 to 800 μM tested
Experimental: As a cell experiment model that replaces the diabetic mouse model through a high fat/fructose diet, that is, obesity, a cytotoxicity experiment model based on saturated fatty acid palmitate, which is an intermediate product of lipid synthesis that is excessively abundant during obesity, has been devised. HEI-OC1 (house-ear institute-organ of Corti 1), the auditory cell line conducting the major auditory function, was used, and the diabetes-mediated hearing loss cell line model was treated with palmitate.
In order to evaluate apoptosis, 24 hours after HEI-OC1 cells, the auditory cell line, were treated with 200 to 800 μM of palmitate, PI (propidium iodide) staining and the cell morphology thereof were analyzed. As a result, cell apoptosis was induced with a change in cell morphology from the palmitate concentration of 200 μM, and this phenomenon became more apparent as the concentration increased (FIG. 4 in part A).

[13] = atorvastatin-administered diabetic mice

## CC(C)c1c(C(=O)Nc2ccccc2)c(-c2ccccc2)c(-c2ccc(F)cc2)n1CC[C@@H](O)C[C@@H](O)CC(=O)O [atorvastatin]
[1]; [13]
  TUNEL expression in spiral ganglion cells: suppressed
  apoptosis (TUNEL) of stria vascularis cells: markedly suppressed
  enlargement of stria vascularis tissue of the lateral wall (H&E): not observed
  reactive oxygen species in cochlear hair cells (DHE immunohistochemistry): decreased reactive oxygen species, like normal mice
[1]; atorvastatin-administered diabetic mice vs normal group
  spiral ganglion cell size and nucleus morphology (H&E): larger cell size than that of the normal group, but had no change in nucleus morphology
[1]; diabetic mice administered with atorvastatin
  morphology of cochlear hair cells (H&E): no morphological changes
[2]
  tumor growth and metastasis: inhibit tumor growth and metastasis
[3]
  hearing loss in age-related hearing loss model: delaying or inhibiting hearing loss
[4]
  hearing loss in noise-induced model: statistically significant effect of inhibiting hearing loss
[5]; 250, 500 or 1,000 nM, HEI-OC1
  cytotoxicity, treatment only with atorvastatin: cytotoxicity was not observed
[5]; atorvastatin pre-treated, palmitate post-treated, 24 hours
  palmitate-induced apoptosis (WST-1 cell viability): significantly inhibited
[6]
  obesity-induced type 2 diabetes: inhibits obesity-induced type 2 diabetes
[7]; HEI-OC1, by concentration and time
  phosphorylation of AKT after treatment with atorvastatin: increased
[7]; HEI-OC1, palmitate plus atorvastatin
  AKT protein phosphorylation under palmitate treatment: inhibited the reduction of AKT protein phosphorylation
[8]
  number of TUNEL-stained cells: statistically decreased
[9]
  production of mitochondrial energy (ATP): maintained the production of mitochondrial energy (ATP)
[10]
  blood glucose level: significantly improved
  body weight: reduced
  glucose tolerance (GTT): significantly improved
  insulin tolerance (ITT): significantly improved
[11]
  generation of reactive oxygen species (DCFDA): statistically significantly inhibit

## CCCCCCCCCCCCCCCC(=O)O [palmitate]
[12]
  concentration from which cell apoptosis with change in cell morphology was induced: ≥ 200 μM
[5]; 24 hours, palmitate at 100, 200 and 400 μM
  cytotoxicity (WST-1 cell viability assay): 20 to 40%
